17 compounds from patent publication US6649626B1, “N-substituted 1-(lactone) isoquinolones for treating nervous disorders” (Centre National de la Recherche Scientifique (CNRS), priority 1999, dated 2003) can be followed below.

Some results are limits rather than exact numbers.

In assay [1] the target is T1, α1β2γ2 subtype of the GABA receptor (Rattus norvegicus, UniProt P18508+P62813+P63138).
T1 construct: expressed in transfected cells; host or cells: Xenopus laevis oocytes (cRNA injection)
Description: Electrophysiology: modulation of GABA currents in Xenopus oocytes expressing recombinant GABA-A receptors. In kind it is cell-based. The settings on record: for % stimulation of the GABA currents / % stimulation of the GABA currents (100 μM): α1β2γ2 in oocytes; for % stimulation of the GABA currents (100 μM): 100 μM compound with GABA.

Assay [2] has as its target T2, benzodiazepine-binding site of the GABA-A receptor (Rattus norvegicus, UniProt P18508+P62813).
T2 construct: IC50 Flu / BZ receptor; other: cerebellum (ce); other: cerebellum (ce; BZ1 subtype); other: 10 μM; cerebellum; other: 100 μM; other: 0.5 μM
Description: Displacement of tritiated flunitrazepam from brain membranes. The settings on record: for inhibition at 100 µM: read-out: Inhibition of the tritiated ligands % Flu (100 μM).

Assay [3] concerns GABA-binding site of the GABA-A receptor. Description: Displacement of tritiated muscimol from brain membranes. Conditions: for Muscimol: stimulation: stimulation instead of displacement.
Assay [4] has as its system picrotoxin-binding site of the GABA-A receptor. Kind of assay: Displacement of 35S-TBPS from brain membranes. Set-up: species or system rats. On the technique in general: Displacement assays read how much labelled ligand stays bound in the presence of the test substance.

T1 sequence (P62813 28-455): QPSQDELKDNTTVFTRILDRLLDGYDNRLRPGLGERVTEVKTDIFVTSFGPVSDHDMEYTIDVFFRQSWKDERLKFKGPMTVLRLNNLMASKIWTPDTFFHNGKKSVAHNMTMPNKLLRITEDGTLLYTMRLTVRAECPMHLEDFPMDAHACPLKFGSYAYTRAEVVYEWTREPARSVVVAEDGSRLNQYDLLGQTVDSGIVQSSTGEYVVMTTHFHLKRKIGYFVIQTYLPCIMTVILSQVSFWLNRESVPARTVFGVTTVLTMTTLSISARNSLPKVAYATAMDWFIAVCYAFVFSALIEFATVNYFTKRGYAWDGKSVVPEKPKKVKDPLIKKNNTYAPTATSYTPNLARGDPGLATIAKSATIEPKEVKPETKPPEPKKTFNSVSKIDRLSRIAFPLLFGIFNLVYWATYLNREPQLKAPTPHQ
T1 sequence (P63138 25-474 limits assumed): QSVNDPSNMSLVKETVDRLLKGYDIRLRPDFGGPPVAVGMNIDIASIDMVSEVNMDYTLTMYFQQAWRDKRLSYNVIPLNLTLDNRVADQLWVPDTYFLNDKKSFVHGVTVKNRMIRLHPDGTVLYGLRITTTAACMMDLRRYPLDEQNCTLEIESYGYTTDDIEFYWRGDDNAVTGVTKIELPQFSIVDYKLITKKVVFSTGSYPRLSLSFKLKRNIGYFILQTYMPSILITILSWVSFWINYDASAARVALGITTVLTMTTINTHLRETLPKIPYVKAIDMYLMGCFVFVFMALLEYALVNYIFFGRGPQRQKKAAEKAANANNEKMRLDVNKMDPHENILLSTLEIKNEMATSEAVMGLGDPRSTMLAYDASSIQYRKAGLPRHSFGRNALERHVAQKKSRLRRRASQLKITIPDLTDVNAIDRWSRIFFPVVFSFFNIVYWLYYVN
T1 sequence (P18508 39-466): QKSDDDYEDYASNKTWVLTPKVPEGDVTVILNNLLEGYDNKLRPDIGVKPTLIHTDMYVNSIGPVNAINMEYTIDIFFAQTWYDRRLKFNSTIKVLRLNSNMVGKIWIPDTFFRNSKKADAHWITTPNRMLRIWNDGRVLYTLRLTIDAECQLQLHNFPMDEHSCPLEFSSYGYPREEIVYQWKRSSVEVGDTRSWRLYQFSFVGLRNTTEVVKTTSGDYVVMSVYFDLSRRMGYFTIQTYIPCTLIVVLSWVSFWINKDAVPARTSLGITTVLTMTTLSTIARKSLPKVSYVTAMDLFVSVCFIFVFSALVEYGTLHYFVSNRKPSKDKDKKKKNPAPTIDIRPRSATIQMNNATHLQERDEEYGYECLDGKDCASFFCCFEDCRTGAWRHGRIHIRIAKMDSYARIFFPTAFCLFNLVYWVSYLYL
T2 sequence (P62813 28-455): as the sequence (P62813 28-455) above
T2 sequence (P18508 39-466): as the sequence (P18508 39-466) above
T2 sequence (P63138 26-474 partner): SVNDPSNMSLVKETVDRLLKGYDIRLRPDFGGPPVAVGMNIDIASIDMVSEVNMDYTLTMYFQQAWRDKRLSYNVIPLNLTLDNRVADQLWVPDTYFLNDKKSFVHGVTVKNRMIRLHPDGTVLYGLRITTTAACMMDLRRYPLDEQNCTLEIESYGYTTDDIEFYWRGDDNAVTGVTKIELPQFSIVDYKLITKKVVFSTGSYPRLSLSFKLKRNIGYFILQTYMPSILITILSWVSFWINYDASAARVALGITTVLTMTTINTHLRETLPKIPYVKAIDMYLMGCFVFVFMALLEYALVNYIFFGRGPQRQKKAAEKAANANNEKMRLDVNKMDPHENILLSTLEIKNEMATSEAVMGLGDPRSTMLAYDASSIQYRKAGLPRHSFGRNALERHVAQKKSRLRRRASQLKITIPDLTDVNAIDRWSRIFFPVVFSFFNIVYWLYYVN

Consider `COc1cc2c(cc1OC)C(C1C=C(C)C(=O)O1)N(C(=O)OCc1ccccc1)CC2` (racemic) [Compound 47], for which the “% stimulation of the GABA currents” value in assay [1] (0.1 μM compound) stood at 0%. Further, the “% stimulation of the GABA currents (100 μM)” value (shortened to “% stimulation … (100 μM)”) in assay [1] stood at 60 ± 26%. Moreover, the “Inhibition of the tritiated ligands % Flu (100 μM)” value in assay [2] (tissue not stated) is 10%. The compound also registered a Displacement of muscimol in assay [3] (100 μM) of 100 μM = 0%.
With `COc1cc2c(cc1OC)[C@H]([C@@H]1C=C(C)C(=O)O1)N(C)CC2` (racemic) [Compound 30b], the “% stimulation … (100 μM)” value in assay [1] is recorded as −10%. The “Inhibition of the tritiated ligands % Flu (100 μM)” value in assay [2] (tissue not stated) was “negligible”.
On to `Cc1ccc(S(=O)(=O)N2CCc3ccccc3C2C2CCC(=O)O2)cc1` (single isomer, unassigned) [Compound 68], for which the “% stimulation … (100 μM)” value in assay [1] is “+184 ± 43%”; in assay [1] (listed as (−) 68), “+184%”.
For `O=C1C=CC(C2c3ccccc3CCN2C(=O)Oc2ccccc2)O1` (racemic) [Compound 57], the “% stimulation of the GABA currents” value in assay [1] (0.1 μM compound) is given as 0%. In addition, the “% stimulation … (100 μM)” value in assay [1] is on record as “+175 ± 13%”. The “Inhibition of the tritiated ligands % Flu” value in assay [2] (0.5 μM, cerebellum) is on record as 35%; in assay [2] (0.5 μM, cortex), 25%; in assay [2] (10 μM, cerebellum), 90%; in assay [2] (10 μM, cortex), 75%. Also, the “Inhibition of the tritiated ligands % Flu (100 μM)” value is 90% in assay [2] (cerebellum) and 85% in assay [2] (cortex). In assay [3] (10 μM), this compound came in with a Displacement of muscimol of 0%. In addition, the “Muscimol: stimulation” value in assay [3] (100 μM) was 10-20%.
On to `O=C1C=CC(C2c3ccccc3CCN2C(=O)OCc2ccccc2)O1` (racemic) [Compound 51], for which the “% stimulation of the GABA currents” value in assay [1] (0.1 μM compound) is reported as 0%. Also, the “% stimulation … (100 μM)” value in assay [1] is “+225 ± 68%”. For the same compound, the “Inhibition of the tritiated ligands % Flu” value in assay [2] (0.5 μM, tissue not stated) was found to be 0%; in assay [2] (10 μM, tissue not stated), 50%. The “Inhibition of the tritiated ligands % Flu (100 μM)” value in assay [2] (tissue not stated) was found to be 85%. The “Inhibition of the tritiated ligands % TBPS” value in assay [4] (0.5 μM) is recorded as 0%; in assay [4] (10 μM), 20%. In addition, the Displacement of muscimol in assay [3] (100 μM) is reported as 100 μM = 0%.
Turning to `COc1cc2c(cc1OC)C(C1C=C(C)C(=O)O1)N(C(=O)OCc1ccccc1)CC2` (racemic) [Compound 46], the “% stimulation of the GABA currents” value in assay [1] (0.1 μM compound) came to 0%. Also, the “% stimulation … (100 μM)” value in assay [1] was found to be 24 ± 5%. In addition, the “Inhibition of the tritiated ligands % Flu (100 μM)” value in assay [2] (tissue not stated) came to 0%. The compound further showed a Displacement of muscimol in assay [3] (100 μM) of 100 μM = 0%.
`Cc1ccc(S(=O)(=O)N2CCc3ccccc3C2C2CCC(=O)O2)cc1` (single isomer, unassigned) [Compound 69]: in assay [1], the “portion of the stimulatory activity due to a binding site distinct from those for the benzodiazepines” value was less than 70% and the “% stimulation … (100 μM)” value is “+859 ± 75%”. In assay [1] (listed as (−) 69), the “% stimulation … (100 μM)” value is on record as “+859%”. In addition, in assay [1] (stimulation by 20 μM compound, 1 μM flumazenil), the “% of the stimulation inhibited by flumazenil” value was found to be 28%.
On to `Cc1ccc(S(=O)(=O)N2C=Cc3ccccc3C2[C@H]2CCC(=O)O2)cc1` (mixture of isomers) [Compound 76, (±)-(1R,2′R)-2-N-Tosyl-1-(2,3,4,5-tetrahydro-5-oxo-2-furyl)-1,2-dihydroisoquinoline], for which the “% stimulation of the GABA currents” value in assay [1] (10 μM compound) is listed as 97 ± 2%. Also, the “% stimulation … (100 μM)” value in assay [1] is “+481 ± 116%”. Also, the “Inhibition of the tritiated ligands % Flu (100 μM)” value in assay [2] (tissue not stated) amounted to 0%. The “Muscimol: stimulation” value in assay [3] (100 μM) is 20% stimulation at 100 μM.
One may read the inhibition as the drop in the measured response relative to a control, in per cent. For the compound `COc1cc2c(cc1OC)C(C1CCC(=O)O1)N(C(=O)OCc1ccccc1)CC2` (racemic) [Compound 48, (±)-(1R,2′R)-2-N-Benzyloxycarbonyl-6,7-dimethoxy-1-(2,3,4,5-tetrahydro-5-oxo-2-furyl)-1,2,3,4-tetrahydroisoquinoline], the “% stimulation of the GABA currents” value in assay [1] (0.1 μM compound) came out at 0%. For the same compound, the entries for the “% stimulation … (100 μM)” value in assay [1] and in assay [1] (listed as (+/−) 48) were “+159 ± 31%” and “+159%”, respectively. Also, the inhibition at 100 µM in assay [2] (tissue not stated) was found to be 35%.
As to `O=C1C=CC(C2c3ccccc3CCN2C(=O)Cc2ccccc2)O1` (racemic) [Compound 56], the “block of the stimulation caused by 20 μM of 164B” value in assay [1] (100 μM) is on record as “blocks the stimulation caused by 20 μM of 164B”. In addition, in assay [1], the “% stimulation … (100 μM)” value was “+10 ± 17%”. Also, the “Inhibition of the tritiated ligands % Flu” value stood at 30% in assay [2] (0.5 μM, cerebellum); 20% in assay [2] (0.5 μM, cortex); 80% in assay [2] (10 μM, cerebellum); 70% in assay [2] (10 μM, cortex). For the same compound, the “Inhibition of the tritiated ligands % Flu (100 μM)” value is given as 85% in assay [2] (cerebellum) and 90% in assay [2] (cortex). The Displacement of muscimol in assay [3] (100 μM) came out at 100 μM = 0%.
Turning to `O=C1C=CC(C2c3ccccc3CCN2C(=O)c2ccccc2)O1` (racemic) [Compound 60], the “% stimulation of the GABA currents” value in assay [1] (0.1 μM compound) was 0%. Further, the “% stimulation … (100 μM)” value in assay [1] is recorded as “+14 ± 13%”. The “Inhibition of the tritiated ligands % Flu” value in assay [2] (0.5 μM, cerebellum) is 35%; in assay [2] (0.5 μM, cortex) it was 25%; in assay [2] (10 μM, cerebellum), 90%; in assay [2] (10 μM, cortex), 80%. The “Inhibition of the tritiated ligands % Flu (100 μM)” value in assay [2] (tissue not stated) stood at 90%. Moreover, the Displacement of muscimol in assay [3] (100 μM) was 100 μM = 0%.
Consider `COc1cc2c(cc1OC)C(C1C=CC(=O)O1)NCC2` (racemic) [Compound 42], for which the “% stimulation of the GABA currents” value in assay [1] (0.1 μM compound) is on record as 0%. In addition, the “% stimulation … (100 μM)” value in assay [1] is recorded as −45 ± 6%. Further, in assay [2] (10 μM, tissue not stated, read-out: Inhibition of the tritiated ligands % Flu), the inhibition at 10 µM amounted to 0%. In addition, the inhibition at 100 µM in assay [2] (tissue not stated) is 30%. The Displacement of muscimol in assay [3] (10 μM) is 0%; in assay [3] (100 μM), 20%.
For the compound `O=C1C=CC(C2c3cc4c(cc3CCN2C(=O)OCc2ccccc2)OCO4)O1` (racemic) [Compound 44], the “% stimulation of the GABA currents” value is listed as 0% in assay [1] (0.1 μM compound) and “+215 ± 16%” in assay [1] (50 μM compound). The “Inhibition of the tritiated ligands % Flu” value is on record as less than 5% in assay [2] (0.5 μM, tissue not stated) and 20% in assay [2] (10 μM, tissue not stated). Also, in assay [2] (tissue not stated), the “Inhibition of the tritiated ligands % Flu (100 μM)” value came out at 45%. Also, the “Inhibition of the tritiated ligands % TBPS” value turned out to be 0% in assay [4] (0.5 μM) and 25% in assay [4] (10 μM). Besides, the Displacement of muscimol in assay [3] (0.5 μM) stood at 10%; in assay [3] (10 μM), 0%. For the same compound, in assay [3] (100 μM), the “Muscimol: stimulation” value amounted to 10%.
As to `Cc1ccc(S(=O)(=O)N2CCc3ccccc3C2C2CCC(=O)N2)cc1` (racemic) [Compound 73], the “% stimulation … (100 μM)” value in assay [1] came to 26 ± 8%.
Consider `COc1cc2c(cc1OC)[C@H]([C@@H]1C=CC(=O)O1)N(C(=O)OCc1ccccc1)CC2` (racemic) [Compound 32b, (±)-(1R,2′S)-1-(2,5-Dihydro-5-oxo-2-furyl)-2-N-benzyloxycarbonyl-6,7-dimethoxy-1,2,3,4-tetrahydroisoquinoline], for which, in assay [3] (concentration not given), the Displacement of muscimol entry is reported as “Displacement of muscimol = 0%”.
Consider `COc1cc2c(cc1OC)[C@H]([C@@H]1CCC(=O)O1)NCC2` (racemic) [Compound 27b, (±)-Threo-6,7-dimethoxy-1-(2,3,4,5-tetrahydro-5-oxo-2-furyl)-1,2,3,4-tetrahydroisoquinoline], for which the “% stimulation of the GABA currents” value in assay [1] (200 μM compound) stood at 200 μM = −6%. Further, the “Inhibition of the tritiated ligands % Flu (100 μM)” value in assay [2] (tissue not stated) is reported as “negligible”.
Take `COc1cc2c(cc1OC)[C@H]([C@@H]1CCC(=O)O1)N(C(=O)OCc1ccccc1)CC2` (racemic) [Compound 49]: the “% stimulation of the GABA currents” value in assay [1] (0.1 μM compound) worked out at 0%. In addition, the “% stimulation … (100 μM)” value in assay [1] is reported as “+67 ± 9%”. The “Inhibition of the tritiated ligands % Flu (100 μM)” value in assay [2] (tissue not stated) was determined as 30%. For the same compound, the “Inhibition of the tritiated ligands % TBPS” value in assay [4] (10 μM) is given as 0%. For the same compound, the Displacement of muscimol in assay [3] (100 μM) amounted to 100 μM = 0%.
